Data as given in patent US20070166547A1, “Use of a layer consisting of hydrophobic linear, or two-dimensional polycyclic aromatics as a barrier layer or an encapsulation and electric components constructed with a layer of this type and comprising organic polymers” (priority 2003, published 2007).

Columns and labels:
[1] = for comparison; cited from earlier work
[2] = tested on: synthase of nitrogen oxide (NOC); test: Morphine abstinence model: activity of synthase of nitrogen oxide (radiometric, [3H]L-citrulline); type: in vivo, rats Wistar
[3] = tested on: adenosine-sensitive receptors of thrombocytes; test: ADP-induced aggregation of thrombocytes in vitro (Born method); type: cell-based, rabbit; conditions: 3 min incubation, ADP 10^−5 M
Description: The compounds according to the invention were studied for the effect of aggregation of thrombocytes induced by a preliminary introduction of a solution of an aggregation inductor with a competing introduction of the compounds according to the invention.
The aggregation of thrombocytes was studied by the Born method based on determination of the changes in the optical density of plasma enriched with thrombocytes after its incubation with an aggregation inductor.
Adenozinediphosphoric acid (ADP) was selected as an aggregation inductor, which in fact is an aggregation generator. Use was made of a sample (registration number 885) of the Sigma Diagnostics Company (USA) in final concentration of 10^−5 M.
The experiments were carried out on male rabbits of the “Chinchilla” breed having a mass of 2.7±0.3 kg. 18-24 hours prior to the experiment they were deprived of feed while preserving free access to water.
To obtain plasma enriched with thrombocytes, blood was taken from a cut of a marginal vein of the rabbit ear, the sample was stabilized with 3.8% of sodium citrate solution in a ratio of 9:1 and centrifuged at 200 g (1000 rev/min) for 10 minutes. The top supernatant layer enriched with thrombocytes was transferred by an automatic dropper into a silicone test tube and kept at 37° C. The plasma enriched with thrombocytes contained, on the average, […]. If this content exceeded the specified 3×10^8 blood platelets in 1 liter, this sample was diluted to the necessary concentration with plasma deprived of thrombocytes, which was obtained by centrifuging blood at 650 g during 10 minutes.
The measurements of the optical density of the samples were made on two-channel aggregometer of the “Chronolog” Company (USA). A flask containing 490 mkl of plasma rich with thrombocytes was placed in a device, into which a magnetic agitator covered with Teflon was lowered. The index of maximum amplitude of aggregation (MA) in percent of a fall of the plasma optical density under effect of the aggregation inductor was recorded. The control index MA of plasma was compared with the MA of plasma incubated for 3 minutes with different concentrations of the compounds: from 10^−3 to 10^−7 in vitro experiments or with plasma obtained 15, 30, 60 and 120 minutes after intravenous administration of different doses of the compounds in vivo experiments.
The process of aggregation of thrombocytes was recorded with the help of a computer; on the monitor screen the there were depicted curves reflecting changes of the optical density of the plasma enriched which was taken as a standard 100% compared to the optical density of the non-thrombocyte plasma taken for 0% content of thrombocytes.
Under in vitro conditions a flask was filled with blood plasma enriched with thrombocytes, to which an aggregation inductor ADP was added at a concentration of 10^−5 M, incubated for 3 minutes, and then the compounds according to the invention were introduced directly into the flask. Their action by aggregation of thrombocytes was studied after 3-minute incubation in a wide range of concentrations from 10^−3 to 10^−7 M to minimum concentration of 10^−7 M not inducing no effect of suppressing the aggregation.

thymus [4] = test: Morphine abstinence model: thymus condition; type: in vivo, rats; conditions: morphinized rats then compound
Description: The effect of the compounds according to the invention on the condition of the thymus of the rats was also investigated: a control group, an experimental group of morphinized animals and an experimental group of animals were first morphinized and then injected with the compounds according to the invention. The experiment was carried out similarly to that described above.

[5] = tested on: metabolism of nitrogen oxide; test: Morphine abstinence model: nitrites and nitrates NOX− in blood plasma, liver and brain; type: in vivo, rats Wistar
Description: (§1) The experiments were carried out on rats in series of 7 animals on each compound according to the invention. Non-morphinized animal with not administered with compounds according to the invention were used as a control group. […] Then the rats were decapitated, the blood from somnolent arteries was collected in test tubes with solution EDTA as an anticoagulant, centrifuged at 1500 g for 15 minutes at 4° C.
To estimate the intensity of metabolism of nitrogen oxide in rats, quantitative determination of stable metabolites of nitrogen oxide—nitrites and nitrates NOX^− in the blood plasma, supernatanates of the liver and thymus gland, a study was conducted by a spectrometric method, and in the brain supernatanates by a […] method.
The spectrometric method is based the reaction of nitrites with the Griss reagent (a mixture of 2% solution of sulfanilamide and 0.2% N-(1-naphthyl)ethylene diamine. At the first step the nitrite reacts with sulfanilamide with formation of diazonium salt, and then with the second component to form azo dye with an adsorption maximum at 540 nm. For reduction of nitrates into nitrites, a fermentative method was used with bacterial reductase nitrate (Grisham M. B. et al., 1995). The samples of plasma and supernatant of the liver deproteinizated at 100° C. for 5 minutes incubated for 30 minutes at 37° C. in 50.0 mM of HEPES pH 7.4 in the presence of 0.2 unit/ml of Aspergillus reductase nitrate, 5.0 mkM of FAD and 0.1 mM of NAD-Ph. At the end of the reaction lactate dehydrogenase and pyruvate were added for isolation of NAD-Ph interfering with the Griss reaction. Then the Griss reagent was added and after 10-minute incubation the light absorption of the samples was measured at 540 nm. To amount of NOX^− was calculated using sodium nitrate as a standard.
The fluorometric method is based on calculation of the nitrite level by the intensity fluorescence of 2,3-diaminonaphthotriazole, a product of reaction of 2,3-diaminonaphthalene (DAN) and nitrite in an acidic medium (Misko T. R., Schilling R. J., Salvemini D. et al. “A fluorometric assay for the measurement of nitrite of biological samples”. Anal. Biochem., 1993, v. 214, p. 11-16). The brain supernatants deproteinizated at 100° C. were placed in a nitrite regenerating system containing 0.125 unit/ml of nitrate reductases, 25 mkM NADPh and 25 mkM FAD prepared in a 20-mM Tris-HCl buffer with pH 7.6 and incubated for 30 minutes at 37° C. The lactatedehydrogenase/pyruvate system was used for oxidation of the NADPh. Then 316 mkM of the DAN solution in 0.62 M of hydrochloric acids were added and the mixture was incubated for 10 minutes in darkness.
280 mM of NaOH were added for stabilization of the fluorescence of the formed 2,3-diaminonaphthotriazole. The fluorescence intensity was measured in the spectrofluorimeter Hitachi F-3000 at a wavelength of excitation of 365 nm and an emission of 405 nm. The concentration of NOX^− in the brain was calculated by means of a standard solution of sodium nitrate.

[6] = tested on: indicator enzymes in blood plasma; test: Morphine abstinence model: indicator enzymes AST, ALT, γ-GTP in blood plasma; type: in vivo, rats Wistar
Description: as §1
To estimate possible hepatoprotective action of the compounds according to the invention under conditions of development of an oxidizing stress in the liver cells, effect of these compounds on the most important biochemical blood indexes, in particular, on the content in blood plasma of indicator enzyme of aspartateaminotransferase (AST), alanineaminotransferase (ALT), γ-glutamiletranspeptidase (γ-GTP) was investigated. The content of enzymes was estimated by their catalyzing activity in blood plasma.
The activity of AST, ALT and γ-GTP was determined by means of diagnostic sets DiaSys, Germany.

thymus [7] = test: Morphine abstinence model: thymus condition; type: in vivo, rats; conditions: compound alone
[8] = compound alone 20.0 mg/kg intramuscularly
[9] = morphinized rats then compound 20.0 mg/kg intramuscularly

Cc1cc2nc3c(=O)[nH]c(=O)nc-3n(C[C@H](O)[C@H](O)[C@H](O)COP(=O)(O)OP(=O)(O)OC[C@H]3O[C@@H](n4cnc5c(N)ncnc54)[C@H](O)[C@@H]3O)c2cc1C [FAD^+]
E1/2 of electrochemical reduction of coenzyme [1]: −0.05 V

O=c1[nH][nH]c(=O)c2ncccc12.[Li] [Compound 6, lithium salt of pyrido[2,3-d]-6H-pyridazine-5,8-dione]
Activity of NOC, Hypothalamus, Control + Compound [2, 8]: 5.93 ± 0.27 pmol/min/mg of protein | Activity of NOC, Mesencephalon, Control + Compound [2, 8]: 2.84 ± 0.31 pmol/min/mg of protein | Activity of NOC, Hypothalamus, Control + Morphine + compound [2, 9]: 5.24 ± 0.24 pmol/min/mg of protein | Activity of NOC, Mesencephalon, Control + Morphine + compound [2, 9]: 1.99 ± 0.31 pmol/min/mg of protein | MA - fall of optical density of plasma, % to the standard ([3]; 10^−3 M): 50.0 ± 1.9 % | MA - fall of optical density of plasma, % to the standard ([3]; 10^−4 M): 53.3 ± 2.2 % | MA - fall of optical density of plasma, % to the standard ([3]; 10^−5 M): 47.4 ± 2.0 % | MA - drop of optical density, % compared to control ([3]; 10^−6 M): 51.2 ± 3.2% | MA - drop of optical density, % compared to control ([3]; 10^−7 M): 50.7 ± 3.2% | Nitrites, thymus Supernatant, Administration of morphine and compound (thymus [4]): 0.419 ± 0.02 nmol/mg of protein | Thymus mass, Administration of morphine and compound (thymus [4]): 207 ± 14 mg | Nitrites in blood plasma, Control + Compound [5, 8]: 15.83 ± 1.21 mkmol/ml | Nitrites in brain, Cortex of cerebrum, Control + Compound [5, 8]: 4.59 ± 0.44 nmol/mg of protein | Nitrites in brain, Hypothalamus, Control + Compound [5, 8]: 6.94 ± 0.67 nmol/mg of protein | Nitrites in brain, Mesencephalon, Control + Compound [5, 8]: 7.01 ± 0.82 nmol/mg of protein | Nitrites in liver, Control + Compound [5, 8]: 0.245 ± 0.010 nmol/mg of protein | Nitrites in blood plasma, Control + Morphine + compound [5, 9]: 15.86 ± 1.20 mkmol/ml | Nitrites in brain, Cortex of cerebrum, Control + Morphine + compound [5, 9]: 5.12 ± 0.18 nmol/mg of protein | Nitrites in brain, Hypothalamus, Control + Morphine + compound [5, 9]: 6.72 ± 0.94 nmol/mg of protein | Nitrites in brain, Mesencephalon, Control + Morphine + compound [5, 9]: 5.76 ± 0.94 nmol/mg of protein | Nitrites in liver, Control + Morphine + compound [5, 9]: 0.294 ± 0.02 nmol/mg of protein | ALT, Ci, mE/l, Control + compound [6, 8]: 114.5 ± 1.13 mE/l | AST, Ci, mE/l, Control + compound [6, 8]: 176.18 ± 3.26 mE/l | γ-GTP, Ci, mE/l, Control + compound [6, 8]: 8.27 ± 2.12 mE/l | ALT, Ci, mE/l, control + Morphine + Compound [6, 9]: 122.44 ± 2.01 mE/l | AST, Ci, mE/l, control + Morphine + Compound [6, 9]: 198.34 ± 9.32 mE/l | γ-GTP, Ci, mE/l, control + Morphine + Compound [6, 9]: 12.52 ± 2.02 mE/l | Nitrites, thymus Supernatant, Administration of compounds (thymus [7]): 0.424 ± 0.04 nmol/mg of protein | Thymus mass, Administration of compounds (thymus [7]): 242 ± 17 mg

NC(=O)c1ccc[n+]([C@@H]2O[C@H](COP(=O)([O-])OP(=O)(O)OC[C@H]3O[C@@H](n4cnc5c(N)ncnc54)[C@H](O)[C@@H]3O)[C@@H](O)[C@H]2O)c1 [NAD^+]
E1/2 of electrochemical reduction of coenzyme [1]: −0.32 V
